# Experimental data published in PubChem BioAssay (NCI).
# “And” between values parts separate entries of the source, which are not always exact repeats. Identical values can stand only once.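 Cells were grown in 96-well plates and exposed to each compound for 48 hours at five concentrations; endpoints were interpolated linearly between bracketing concentrations, or set to the highest concentration if not reached. GI50 = concentration required for 50% inhibition of growth. TGI is the concentration that stops growth completely.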
# Assays:
# Assay in all cases: growth of human tumour cells (NCI), 48 h
# [1] = system: DLD-1 colon
# [2] = system: DMS 114 small cell lung
# [3] = system: KM20L2 colon
# [4] = system: LXFL 529 NSCLC
# [5] = system: M19-MEL melanoma
# [6] = system: SNB-78 CNS
# [7] = system: XF 498 CNS
# [8] = system: RXF-631 renal
# [9] = system: MDA-N
# [10] = system: SN12K1 renal
SMILES,TGI [1],TGI [2],TGI [3],TGI [4],TGI [5],TGI [6],TGI [7],TGI [9],also measured
CCCCCCCC(=O)NCC(O)CNC(=O)CCCCCCC,> 100 µM,> 100 µM,> 100 µM,> 100 µM,> 100 µM,> 100 µM,> 100 µM,–,–
Cc1ccccc1C1=[N+]([O-])c2ccccc2C1=O,31.9 µM,27.4 µM,32.9 µM,28.3 µM,28.5 µM,–,31.3 µM,–,TGI [8]: 42.8 µM
O=C1c2cccnc2C(=O)C2C3C=CC(C3)C12 (centres undefined),–,–,–,–,–,–,–,13.2 µM,–
CCOC(=O)c1c(-c2ccccc2)oc(-c2ccccc2)c1C(=O)OCC,> 100 µM,> 100 µM,> 100 µM,> 100 µM,> 100 µM,> 100 µM,> 100 µM,–,–
CC(=O)Oc1cc(C)c2c(c1OC(C)=O)CC1(O2)[C@@H](C)CCC2[C@@]3(C)CC[C@H](OC(C)=O)C(C)(C)C3CC[C@]21C (some centres undefined),15.1 µM,4.49 µM,28.3 µM,16 µM,5.04 µM,4.64 µM,–,–,TGI [8]: 19.9 µM
O=C(O)C1=CCCc2ccc3ccccc3c21,–,> 100 µM,> 100 µM,> 100 µM,> 100 µM,> 100 µM,> 100 µM,–,TGI [8]: > 100 µM
CCOC(=O)/C(=N\OC)C(O)C(F)(F)F (centres undefined),–,–,–,–,–,–,–,> 100 µM,–
CSc1cccc(-n2c3nc(=O)n(C)c(=O)c-3nc3ccccc32)c1,32.6 µM,14.9 µM,15.4 µM,26.2 µM,5.03 µM,43.7 µM,13.4 µM,–,–
CC(=O)N1c2ccccc2C2=CC3C4C(=O)N(c5ccccc5)C(=O)C4C21C1C(=O)N(c2ccccc2)C(=O)C31 (centres undefined),> 100 µM,44.1 µM,70 µM,> 100 µM,–,> 100 µM,76.8 µM,–,–
CCN(CC)CCCn1cnc2ncccc2c1=O,> 100 µM,> 100 µM,–,> 100 µM,> 100 µM,> 100 µM,–,–,–
O=C(Nc1ccccc1)c1nn(-c2cc(S(=O)(=O)O)c([N+](=O)[O-])cc2Cl)[n+](-c2cc(S(=O)(=O)[O-])c([N+](=O)[O-])cc2Cl)n1,–,–,–,–,–,–,–,> 100 µM,–
Cc1oc2c(C)c3oc(=O)cc(C)c3cc2c1CNC(=O)[C@@H]1OCCOCCOCCOCCOCCOC1C(=O)O (some centres undefined),> 100 µM,> 100 µM,> 100 µM,27.7 µM,> 100 µM,> 100 µM,–,–,TGI [8]: > 100 µM
C=C(C)C1Cc2c(cc(OC)c3c(=O)c4cccc(O)c4oc23)O1 (centres undefined),–,–,–,–,–,–,–,53.1 µM,–
CC1=C(/C=C/C(=O)O)C(C)(C)CCC1,–,–,–,–,–,–,–,> 100 µM,–
CC1(Cl)CC2OC3(Br)C=CC(C)(O)C2(CC1Br)C3(C)C (centres undefined),> 100 µM,> 100 µM,> 100 µM,> 100 µM,> 100 µM,> 100 µM,–,–,–
C/C(=N\NC(N)=S)c1cc(C)c(C)cc1C,> 100 µM,42.3 µM,> 100 µM,> 100 µM,74.2 µM,> 100 µM,50.3 µM,–,TGI [8]: > 100 µM

SMILES,TGI [1],TGI [2],TGI [3],TGI [4],TGI [5],TGI [6],TGI [7],TGI [9],also measured
O=C(C=Nc1ccccc1C(=O)[O-])c1cccs1.O=C(C=Nc1ccccc1C(=O)[O-])c1cccs1.[Co+2],> 100 µM,–,> 100 µM,–,> 100 µM,–,–,–,GI50 [5]: > 100 µM
CCC[CH2][Sn]([CH2]CCC)([O]C(=O)c1cc(F)ccc1F)[O][Sn]([CH2]CCC)([CH2]CCC)[O]C(=O)c1cc(F)ccc1F,0.974 µM,0.25 µM,2.11 µM,0.155 µM,0.459 µM,1.59 µM,0.305 µM,1.46 µM,GI50 [1]: 0.206 µM; GI50 [2]: 0.0832 µM; GI50 [3]: 0.779 µM; GI50 [4]: 0.0185 µM; GI50 [5]: 0.0854 µM; GI50 [9]: 0.239 µM; GI50 [6]: 0.222 µM; GI50 [7]: 0.16 µM
COc1ccc2c(c1O)C13CCN(C)C(C2)C1CCC1(C3)OCCO1 (centres undefined),–,–,–,–,–,–,–,> 100 µM,–
CC(=O)O[C@@]12CO[C@@H]1C[C@H](O)[C@@]1(C)C(=O)[C@H](O)C3=C(C)[C@@H](OC(=O)[C@H](O)[C@@H](NC(=O)OC(C)(C)C)c4ccccc4)C[C@@](O)([C@@H](OC(=O)c4ccccc4)[C@H]21)C3(C)C,> 75.4 µM,0.0525 µM and 0.0223 µM,0.022 µM,> 100 µM,21.2 µM,–,–,–,GI50 [1]: 0.0352 µM and 0.0338 µM; GI50 [2]: 0.00368 µM and 0.00371 µM; GI50 [3]: 0.00818 µM; GI50 [4]: 0.0356 µM and 0.0257 µM; GI50 [5]: 0.0114 µM; GI50 [8]: 0.297 µM; TGI [8]: > 56.7 µM; GI50 [7]: 0.0397 µM and 0.0317 µM
C/C=C/C1=C(Cl)C(=O)[C@@H](Cl)[C@@]1(O)C(=O)OC,9.35 µM,> 34.4 µM,15.9 µM,7.41 µM,10.1 µM,39.4 µM,13.3 µM,–,TGI [8]: 43.9 µM; TGI [10]: 4.48 µM
CC[O-].CC[O-].O=C([CH-]C(=O)c1cccnc1)c1ccccc1.O=C([CH-]C(=O)c1cccnc1)c1ccccc1.[Ti+4],–,> 100 µM,> 100 µM,> 100 µM,> 100 µM,> 100 µM,90.6 µM,–,GI50 [2]: > 100 µM; GI50 [3]: 62 µM; GI50 [4]: 43.6 µM; GI50 [5]: 77.7 µM; GI50 [8]: 25.9 µM; TGI [8]: > 100 µM; GI50 [6]: > 100 µM; GI50 [7]: 32.8 µM
Cc1nc(-c2ccccc2)c(Cc2ccccc2O)c(=O)[nH]1,–,–,–,–,–,–,–,> 100 µM,–
CCC1C(=O)OCc2c1cc1n(c2=O)Cc2cc3ccccc3nc2-1 (centres undefined),–,–,–,–,–,–,–,> 100 µM,–
[Cl][Sn]([Cl])([c]1ccccc1)[c]1ccccc1,17.5 µM,> 100 µM,28 µM,2.93 µM,68.6 µM,56.7 µM,6.21 µM,–,GI50 [1]: 4.51 µM; GI50 [2]: 2.67 µM; GI50 [3]: 14.8 µM; GI50 [4]: 1.53 µM; GI50 [5]: 19.5 µM; GI50 [6]: 9.33 µM; GI50 [7]: 2.58 µM
S=C(N/N=C(/c1ccccc1)c1ccccn1)N1CCCCC1,–,–,–,–,–,–,–,2.26 µM and 2.62 µM,GI50 [9]: 0.118 µM
Nc1nc2sc3ccccc3c(=O)n2n1,> 100 µM,> 100 µM,> 100 µM,> 100 µM,–,> 100 µM,> 100 µM,–,–
Cc1cc(Cl)cc2c(N=Nc3ccccc3[N+](=O)[O-])c(O)[nH]c12,–,–,–,–,–,–,–,> 100 µM,–
Nc1cc(C(=O)O)[nH]c(=O)n1,–,–,–,–,–,–,–,> 100 µM,–
CN(C)CCN(C)CC1COC(C)(C)O1 (centres undefined),> 100 µM,–,> 100 µM,> 100 µM,> 100 µM,> 100 µM,> 100 µM,–,–
COC(c1cccc(C(O)(C(F)(F)F)C(F)(F)F)c1)(C(F)(F)F)C(F)(F)F,34.6 µM,32.6 µM,31.2 µM,32 µM,30.5 µM,–,28.2 µM,–,–
